Experimental data published in ChEMBL document CHEMBL3046099, “Effect of reduced risk pesticides on greenhouse vegetable arthropod biological control agents” (2011).

Assays:
Amblyseius swirskii [1] = test: Toxicity in Typhlodromips swirskii infested green bean leaves assessed as mortality at 2 times recommended rate at 48 hr by leaf dip method (reference value: 10%); format: functional
Orius insidiosus [2] = test: Toxicity in Orius insidiosus infested green bean leaves assessed as mortality at recommended rate at 48 hr by leaf dip method (reference value: 20%); format: functional
Eretmocerus eremicus [3] = test: Toxicity in Eretmocerus eremicus infested green bean leaves assessed as mortality at 2 times of recommended rate at 48 hr by leaf dip method (reference value: 10%); format: functional
Eretmocerus eremicus [4] = test: Toxicity in Eretmocerus eremicus infested green bean leaves assessed as mortality at recommended rate at 48 hr by leaf dip method (reference value: 10%); format: functional
Amblyseius swirskii [5] = test: Toxicity in Typhlodromips swirskii infested green bean leaves assessed as mortality at recommended rate at 48 hr by leaf dip method (reference value: 10%); format: functional
Eretmocerus eremicus [6] = test: Toxicity in Eretmocerus eremicus infested cucumber leaves assessed as mortality at recommended rate after 15 days under green house condition (reference value: 30%); format: functional, organism-based
Orius insidiosus [7] = test: Toxicity in Orius insidiosus infested green bean leaves assessed as mortality at 2 times recommended rate at 48 hr by leaf dip method (reference value: 20%); format: functional

Compound | mortality (Amblyseius swirskii [1]) | mortality (Orius insidiosus [2]) | mortality (Eretmocerus eremicus [3]) | mortality (Eretmocerus eremicus [4]) | mortality (Amblyseius swirskii [5]) | mortality (Eretmocerus eremicus [6]) | mortality (Orius insidiosus [7])
METAFLUMIZONE | 8.8% | 69% | 0% | 0% | 14.5% | 4.4% | 
CCCCC(C#N)(Cn1cncn1)c1ccc(Cl)cc1 (stereo not given) [MYCLOBUTANIL] | 17% |  | 5.3% | 5% | 7.5% |  | 
O=C([O-])O.[K+] [POTASSIUM BICARBONATE] | 8.8% |  | 2.5% | 2.5% | 19.8% |  | 
CNC(=O)c1cc(Cl)cc(C)c1NC(=O)c1cc(Br)nn1-c1ncccc1Cl [CHLORANTRANILIPROLE] | 14.3% | 8% | 0% | 0% | 15.8% |  | 16%
